Assay results taken from patent US12234238B2, “Antimicrobial compounds and methods of making and using the same” (BIOVERSYS AG, priority 2017, dated 2025).
Where two headings read alike, the source gives them in different places.

Key:
[1] = test system: Staphylococcus aureus (S. aureus) 11540 strain; assay: standard microdilution assay to determine minimum inhibitory concentrations (MICs), S. aureus; type: cell-based
Protocol: (§1) The in vitro activity of the compounds of the present disclosure can be determined. Antimicrobial testing is typically performed to determine the minimum inhibitory concentration (MIC). Minimum inhibitory concentrations (MICs) are determined by the microdilution method in a final volume of 100 μl according to protocols outlined by The Clinical and Laboratory Standards Institute (CLSI). Performance standards for reference strains are assessed within the same experimental design to maintain quality control. See, for example, Clinical Laboratory Standards Institute: Methods for dilution antimicrobial susceptibility tests for bacteria that grow aerobically M7-A8. Approved Standard-Eighth Edition. Wayne, PA: CLSI; December 2008: and Clinical Laboratory Standards Institute: Performance Standards for Antimicrobial Susceptibility Testing M100-S20; Approved Standard-Twentieth Edition. Wayne, PA: CLSI; June 2010. The compounds of the present disclosure were tested for antimicrobial activity. The Compounds 1-122 were run against Eschericia coli (E. coli) strain ATCC25922 and against Staphylococcus aureus (S. aureus) 11540 strain using a standard microdilution assay to determine minimum inhibitory concentrations (MICs). […] It will be recognized by one skilled in the art that the compounds can be assessed against other bacterial organisms and that the presentation of data for activity against Eschericia coli and Staphylococcus aureus are illustrative and in no way is intended to limit the scope of the present disclosure. The compounds of the present disclosure can be assayed against a range of other microorganisms depending upon the performance activity desired to be gathered. Furthermore, the “+” and “−” representation and the selection of a cutoff value of 16 micrograms/mL is also illustrative and in no way is intended to limit the scope of the present disclosure.

[2] = test system: Eschericia coli (E. coli) strain ATCC25922; assay: standard microdilution assay to determine minimum inhibitory concentrations (MICs), E. coli; type: cell-based; details: Escherichia coli
Protocol: as §1

[3] = Rat infusion study: clinical signs and IV plasma pharmacokinetics across infusion lengths; type: in vivo; details: male Sprague-Dawley rats; for Clinical Signs: 4 mg/kg jugular venous infusion, listed as Compound No. 34, 4 mg/kg; for AUC(0-inf) / Cmax / half-life: male, Sprague-Dawley, rat, plasma, iv, 4 mg/kg, 4 mg/kg IV
From the text: Many pyrrolocytosines, including Compound No. 34, share an acute clinical syndrome, which manifests in as a Cmax-driven hemodynamic effect and is associated with immediate clinical signs such as labored breathing. Cmax is the peak concentration a molecule reaches in the plasma, in this case directly following intravenous administration, and is expressed generally in micrograms/milliliter. The syndrome is dose-dependent, meaning that the higher the amount of drug given, the more severe the effects. This is generally considered the limiting toxicity for the effected compounds of this class. Importantly, the efficacy for the pyrrolocytosines, including Compound No. 34, is not driven by the Cmax but rather by the AUC (Area-Under-the-plasma-drug-concentration-time-Curve), which is an expression of the total body exposure to the drug and is expressed generally in micrograms*hour/milliliter. In rat studies with several pyrrolocytosines, including Compound No. 34, it has been shown that increasing the length, or duration, of the intravenous administration effectively modulates or eliminates the clinical syndrome, depresses the concentration maximum, results in a short distribution half-life but still affords drug exposures necessary for efficacy.
As an example, a study conducted by PharmOptima under study number 2017-164 with Compound No. 34, compared the clinical signs and plasma drug concentration data across several infusion lengths: 10-minutes, which is the screening length at which the acute syndrome is observed, 1-hour, 2-hour, 3-hour and 24-hour. A total of 15 male Sprague-Dawley rats (275-300 grams) were used in the study, divided evenly across the 5 dosing regimens. The route of drug administration was via jugular venous infusion, using a syringe infusion pump. Compound No. 34 was formulated in phosphate-buffered mannitol, with a starting pH=6.5.
There was a clear decrease in Cmax as infusion length was increased. The intermediate dosing groups still achieved significant AUC, or drug exposures for efficacy, and particularly with the 3 h infusion itis clear that the dose can be increased to move the AUC higher while not approaching the Cmax associated with the severe end of the acute tolerability. The 24 h infusion is particularly compelling. It indicates the concentration can be titrated to achieve steady-state drug levels for efficacy while remaining well below the Cmax associated with clinical signs. […] In the end, this translates into a generous therapeutic window.

Row | MIC [1] | MIC [2] | Compound | further results
1 | ≤ 16 µg/mL | ≤ 16 µg/mL | C[C@H](NCC[C@H](C)SC(=N)N)c1ccc(-n2cc3cc(-c4cc(CCC[C@@H](N)C5CC5)cc(Cl)c4F)[nH]c3nc2=O)cc1 [Compound 11] | 
2 | ≤ 16 µg/mL | ≤ 16 µg/mL | C[C@H](N)CCCc1cc(Cl)c(F)c(-c2cc3cn(-c4ccc([C@H]5C[C@H](CCSC(=N)N)CN5)cc4)c(=O)nc3[nH]2)c1 [Compound 114] | 
3 | ≤ 16 µg/mL | ≤ 16 µg/mL | C[C@H](N)CCCN1C(c2cc3cn(-c4ccc([C@@H]5CCC[C@@H](CCSC(=N)N)N5)cc4)c(=O)nc3[nH]2)C[C@@H]2CCCC[C@@H]21 (stereo partly drawn) [Compound 62] | 
4 | ≤ 16 µg/mL | ≤ 16 µg/mL | C[C@H](N)CCCc1cc(Cl)c(F)c(-c2cc3cn(-c4ccc([C@@H]5CCC[C@@H](CCSC(=N)N)N5)cc4)c(=O)nc3[nH]2)c1 [Compound 34] | Clinical Signs ([3]; 10-min infusion): significant labored breathing; Clinical Signs ([3]; 1 h, 2 h and 3 h infusion groups): minor signs of chewing and licking; Clinical Signs ([3]; 24 h infusion): no clinical signs and none; AUC(0-inf) ([3]; 10-min infusion): 22000 ng·h/mL; Cmax ([3]; 10-min infusion): 23600 ng/mL; AUC(0-inf) ([3]; 1 h infusion): 14400 ng·h/mL; Cmax ([3]; 1 h infusion): 8890 ng/mL; AUC(0-inf) ([3]; 2 h infusion): 14400 ng·h/mL; Cmax ([3]; 2 h infusion): 8120 ng/mL; AUC(0-inf) ([3]; 3 h infusion): 9150 ng·h/mL; Cmax ([3]; 3 h infusion): 3760 ng/mL; AUC(0-inf) ([3]; 24 h infusion): 11000 ng·h/mL; Cmax ([3]; 24 h infusion): 560 ng/mL; half-life ([3]; 10-min infusion, read-out: T½ (h)-alpha (converted)): 1.01 h; half-life ([3]; 1 h infusion, read-out: T½ (h)-alpha (converted)): 0.91 h; half-life ([3]; 2 h infusion, read-out: T½ (h)-alpha (converted)): 1.02 h; half-life ([3]; 3 h infusion, read-out: T½ (h)-alpha (converted)): 0.99 h; half-life ([3]; 24 h infusion, read-out: T½ (h)-alpha (converted)): 1.01 h; half-life ([3]; first of two cells, infusion group(s) unclear (grid: 10-min), read-out: T½ (h)-terminal (converted)): 15.2 h; half-life ([3]; second of two cells, infusion group(s) unclear (grid: 1 h), read-out: T½ (h)-terminal (converted)): 15.2 h
5 | ≤ 16 µg/mL | ≤ 16 µg/mL | C[C@@H](N)CCc1cc(Cl)c(F)c(-c2cc3cn(-c4ccc([C@@H]5CCC[C@@H](CCSC(=N)N)N5)cc4)c(=O)nc3[nH]2)c1 [Compound 29] | 
6 | ≤ 16 µg/mL | ≤ 16 µg/mL | C[C@@H](N)CCCN1C[C@H](N)CC1c1cc2cn(-c3ccc([C@@H]4CCC[C@@H](CCSC(=N)N)N4)cc3)c(=O)nc2[nH]1 (stereo partly drawn) [Compound 65] | 
7 | ≤ 16 µg/mL | ≤ 16 µg/mL | CCc1c(F)c(CCC[C@H](C)N)cc(-c2cc3cn(-c4ccc([C@@H]5CCC[C@@H](CCSC(=N)N)N5)cc4)c(=O)nc3[nH]2)c1F [Compound 104] | 
8 | ≤ 16 µg/mL | ≤ 16 µg/mL | CC(C)SC(=N)NCC[C@@H]1CCC[C@@H](c2ccc(-n3cc4cc(-c5cc(CCC[C@H](C)N)cc(Cl)c5F)[nH]c4nc3=O)cc2)N1 [Compound 119] | 
9 | ≤ 16 µg/mL | ≤ 16 µg/mL | CN[C@H]1CNC(c2cc3cn(-c4ccc([C@@H]5CCC[C@@H](CCSC(=N)N)N5)cc4)c(=O)nc3[nH]2)C1 (stereo partly drawn) [Compound 83] | 
10 | ≤ 16 µg/mL | ≤ 16 µg/mL | C[C@H](N)CCCc1cc(Cl)c(F)c(-c2cc3cn(-c4ccc([C@H]5C[C@H](CCSC(=N)N)CN5CCCF)cc4)c(=O)nc3[nH]2)c1 [Compound 117] | 
11 | ≤ 16 µg/mL | ≤ 16 µg/mL | C[C@@H](N)CCCN1C[C@H](CO)CC1c1cc2cn(-c3ccc([C@@H]4CCC[C@@H](CCSC(=N)N)N4)cc3)c(=O)nc2[nH]1 (stereo partly drawn) [Compound 81] | 
12 | ≤ 16 µg/mL | ≤ 16 µg/mL | C[C@H](N)CCCc1cc(Cl)c(F)c(-c2cc3cn(-c4ccc([C@@H]5CCC[C@@H](CCSC(=N)N)N5CCCSC(=N)N)cc4)c(=O)nc3[nH]2)c1 [Compound 19] | 
13 | ≤ 16 µg/mL | ≤ 16 µg/mL | C[C@H](N)CCCc1cc(-c2cc3cn(-c4ccc([C@@H]5CCC[C@@H](CCSC(=N)N)N5)cc4)c(=O)nc3[nH]2)cc2c1CCCC2 [Compound 93] | 
14 | ≤ 16 µg/mL | ≤ 16 µg/mL | C[C@H](N)CCCc1cc(-c2cc3cn(-c4ccc([C@@H]5CCC[C@@H](CCSC(=N)N)N5)cc4)c(=O)nc3[nH]2)cc(C(C)(F)F)c1 [Compound 89] | 
15 | ≤ 16 µg/mL | ≤ 16 µg/mL | C[C@H](N)CCCN1C(c2cc3cn(-c4ccc([C@@H]5CCC[C@@H](CCSC(=N)N)N5)cc4)c(=O)nc3[nH]2)C[C@H]2CCCC[C@@H]21 (stereo partly drawn) [Compound 53] | 
16 | ≤ 16 µg/mL | ≤ 16 µg/mL | C[C@H](CO)CN1[C@H](CCSC(=N)N)CCC[C@H]1c1ccc(-n2cc3cc(-c4cc(CCC[C@H](C)N)cc(Cl)c4F)[nH]c3nc2=O)cc1 [Compound 105] | 
17 | ≤ 16 µg/mL | ≤ 16 µg/mL | CSC(=N)NCC[C@@H]1CCC[C@@H](c2ccc(-n3cc4cc(-c5cc(CCC[C@H](C)N)cc(Cl)c5F)[nH]c4nc3=O)cc2F)N1 [Compound 121] | 
18 | ≤ 16 µg/mL | ≤ 16 µg/mL | N=C(N)SCCCN1[C@H](CCO)CCC[C@H]1c1ccc(-n2cc3cc(-c4cc(CCC[C@@H](N)C5CC5)cc(Cl)c4F)[nH]c3nc2=O)cc1 [Compound 18] | 
19 | ≤ 16 µg/mL | ≤ 16 µg/mL | C/N=C(\NC)SCC[C@@H]1CCC[C@@H](c2ccc(-n3cc4cc(-c5cc(CCC[C@H](C)N)cc(Cl)c5F)[nH]c4nc3=O)cc2)N1 [Compound 43] | 
20 | ≤ 16 µg/mL | ≤ 16 µg/mL | C[C@H](N)CCCc1cc(Cl)c(F)c(-c2cc3cn(-c4ccc([C@@H]5CCC[C@@H](CCO)N5CCCSC(=N)N)cc4)c(=O)nc3[nH]2)c1 [Compound 17] | 
